Patent publication EP0449955B1, “SYNTHETIC HIV-LIKE PEPTIDES, THEIR COMPOSITIONS AND USES” (CLARITY TECHNOLOGIES INCORPORATED, priority 1988, dated 1996)
“Also recorded” adds a separate entry of the source.

What was measured:
SIV/HIV-2 antibodies = experiment: EIA of HIV-2 gp32 peptide-protein conjugates against macaque serum pools; assay type: binding; settings: peptide conjugated via C-terminus to BSA (SMCC), coated at 10 micrograms peptide/ml; 1:101 dilution of SIV+ macaque serum pool; Figure 5
Procedure: The free peptides or peptide-protein conjugates of Figures 1-13 were initially screened for immunoreactivity by coating each well of polystyrene microtiter EIA plates (Costar, Cambridge, Massachusetts, U.S.A.) with 0.2 ml amounts of concentrations of 5-50 micrograms/ml peptide in Tris buffer, 10 mM, pH 8.0, at 4°C overnight. Peptides or peptide-protein conjugates showing immunoreactivity by EIA were then further diluted for coating to determine the minimal concentrations required that allowed maximal immunoreactivity with antibodies to HIV, and minimal nonspecific reactivity with normal sera. The EIA tests were performed as follows: The coating solution was removed from each well and the wells were blocked at 37°C for 30 minutes with a solution of 50 mM phosphate, 100 mM NaCl, pH 7.4, 1% BSA, 0.5% gelatin. The wells were then aspirated dry with a microtiter plate washer and washed 3 times with a solution of 50 mM phosphate, 100 mM NaCl, .05% Tween 20, (trademark) pH 7.4 (PBST). […] Reactions were stopped with 50 microliters of 4N H₂SO₄, and the color development was quantitated in a Multiscan plate reader at A₄₉₂. […] Most peptides and peptide conjugates were initially screened against a 1:101 dilution of pools of HIV positive or HIV negative sera, and the same serum pool was used to allow quantitative comparison of immunoreactivity of different free peptides or peptide-protein conjugates.
The peptides in Figures 1 and 5 were synthesized as described in Example 1 and conjugated to KLH or BSA as described in Example 2. These peptide-protein conjugates were coated to polystyrene microtiter plates all at a concentration 10 micrograms peptide/ml and evaluated for immunoreactivity as described in Example 3, using a 1:101 dilution of a pool of sera (HIV+/SIV+, respectively) containing antibodies to HIV-1 (Figure 1) or to HIV-2 (Figure 5), as well as pooled serum (HIV-/SIV-, respectively) containing no antibodies to HIV-1 or HIV-2. […]

antibodies to HIV-2 = experiment: Rapid EIA with latex-immobilized peptide reagents, HIV-2; assay type: binding; settings: free peptide passively adsorbed onto carboxylate latex
Procedure: A 125 microliter volume of 10% latex was added to a 375 microliter volume of deionized water, and mixed with an equal volume (0.5ml) of 1M carbodiimide, pH 4.5. The mixture was shaken gently a room temperature for 1 hour, and then washed 3 times by centrifugation at 9,000 x g for 10 minutes, removal of supernate, and resuspension of the pellet in a 12-14 ml volume of deionized water, pH 4.5. The free peptides at 1 mg/ml concentration (500 micrograms/ml of each peptide 4S36 and 5S70), or the peptide-BSA conjugate of peptides 4S36 and 5S70 at 500 micrograms/ml were added to the final washed activated latex pellet (1 ml volume of peptide containing solution per 125 microliters original volume of latex). […] It was determined that this stock solution of latex coated with peptide-BSA conjugate could be diluted 1:10-1:30 with latex diluent buffer for use in the rapid EIA described below.
Serum specimens were diluted 1:8 for the rapid EIA in a serum diluent buffer consisting of 0.03M Tris, pH 8 containing 0.8% NaCl, 0.05% NaN₃, 0.05% Triton x-100 (trademark). […] The reaction was stopped after 3-4 minutes by adding a drop of 4N H₂SO₄, and the test device could be retained as a permanent record of positive (blue-purple color) or negative (white membrane) until the results were recorded. […]

Sequence: ARLNSWGCAFRQVCHGC [2S25]
- immunoreactivity with SIV/HIV-2 antibodies (SIV/HIV-2 antibodies): maximally immunoreactive; also recorded: Significant immunoreactivity; also recorded: best immunoreactivity
- discrimination of HIV-2+ from HIV-2- serum samples (antibodies to HIV-2): capable of discriminating
